Reference: ChEMBL document CHEMBL6178016, “Design, Synthesis, and Biological Evaluation of New PDE4 Inhibitors for the Treatment of Pressure Ulcers” (J Med Chem, 2025)
Active and inactive are the calls of the source. No cut-off for these calls is given here.

Experiments:
[1] = test system: RAW264.7; assay: Cytotoxicity against mouse RAW264.7 cells at 10 uM measured after 24 hrs by CCK-8 method; format: functional, cell-based
[2] = test system: RAW264.7; assay: Cytotoxicity against mouse RAW264.7 cells measured after 24 hrs by CCK-8 method; format: functional
[3] = test system: RAW264.7; assay: Antiinflammatory activity against mouse RAW264.7 cells assessed as inhibition of LPS-induced TNF-alpha release preincubated for 2 hrs followed by LPS stimulation and measured after 4 hrs by RT-PCR analysis; format: functional, cell-based
[4] = test system: RAW264.7; assay: Antiinflammatory activity against mouse RAW264.7 cells assessed as inhibition of LPS-induced NO release preincubated for 2 hrs followed by LPS stimulation and measured after 4 hrs by RT-PCR analysis; format: functional, cell-based
[5] = AUC (0 to t) in Sprague-Dawley rat at 5 mg/kg, iv; format: ADME, organism-based; conditions: in vivo
[6] = AUC (0 to infinity) in Sprague-Dawley rat at 5 mg/kg, iv; format: ADME, organism-based; conditions: in vivo
[7] = Clearance in Sprague-Dawley rat at 5 mg/kg, iv; format: ADME, organism-based; conditions: in vivo
[8] = AUC (0 to t) in Sprague-Dawley rat at 10 mg/kg, po; format: ADME, organism-based; conditions: in vivo
[9] = AUC (0 to infinity) in Sprague-Dawley rat at 10 mg/kg, po; format: ADME, organism-based; conditions: in vivo
[10] = Half life in Sprague-Dawley rat at 10 mg/kg, po; format: ADME, organism-based; conditions: in vivo
[11] = Oral bioavailability in Sprague-Dawley rat at 10 mg/kg; format: ADME, organism-based; conditions: in vivo
[12] = biological target: Cytochrome P450 2C19 (Homo sapiens, UniProt P33261); assay: Inhibition of human CYP2C19; format: ADME
[13] = biological target: Cytochrome P450 2D6 (Homo sapiens, UniProt P10635); assay: Inhibition of human CYP2D6; format: ADME
[14] = biological target: Cytochrome P450 3A4 (Homo sapiens, UniProt P08684); assay: Inhibition of human CYP3A4; format: ADME
[15] = biological target: cGMP-dependent 3',5'-cyclic phosphodiesterase (Homo sapiens, UniProt O00408); assay: Inhibition of PDE2A (unknown origin)
[16] = biological target: cGMP-inhibited 3',5'-cyclic phosphodiesterase 3A (Homo sapiens, UniProt Q14432); assay: Inhibition of PDE3A (unknown origin)
[17] = biological target: cGMP-specific 3',5'-cyclic phosphodiesterase (Homo sapiens, UniProt O76074); assay: Inhibition of PDE5A (unknown origin)
[18] = biological target: Cone cGMP-specific 3',5'-cyclic phosphodiesterase subunit alpha' (Homo sapiens, UniProt P51160); assay: Inhibition of PDE6C (unknown origin)
[19] = biological target: High affinity 3',5'-cyclic-AMP phosphodiesterase 7A (Homo sapiens, UniProt Q13946); assay: Inhibition of PDE7A (unknown origin)
[20] = biological target: High affinity cAMP-specific and IBMX-insensitive 3',5'-cyclic phosphodiesterase 8A (Homo sapiens, UniProt O60658); assay: Inhibition of PDE8A (unknown origin)
[21] = biological target: cAMP and cAMP-inhibited cGMP 3',5'-cyclic phosphodiesterase 10A (Homo sapiens, UniProt Q9Y233); assay: Inhibition of PDE10A (unknown origin)
[22] = test system: Rattus norvegicus; assay: Antiinflammatory activity against male Sprague-Dawley rat pressure ulcer model assessed as wound healing rate at 0.625% administration as ointment measured after 7 days (reference value: 70%); format: functional; conditions: time 7 day
[23] = test system: Rattus norvegicus; assay: Antiinflammatory activity against male Sprague-Dawley rat pressure ulcer model assessed as wound healing rate at 1.25% administration as ointment measured after 7 days (reference value: 70%); format: functional; conditions: time 7 day
[24] = test system: Rattus norvegicus; assay: Antiinflammatory activity against male Sprague-Dawley rat pressure ulcer model assessed as reduction in IL6 mRNA expression in skin at 1.25% administered as ointment by qRT-PCR analysis; format: functional, organism-based
[25] = test system: Rattus norvegicus; assay: Antiinflammatory activity against male Sprague-Dawley rat pressure ulcer model assessed as increase in number of fibroblasts at 0.625 to 2.5% administered as ointment by H and E staining based analysis; format: functional, organism-based
[26] = test system: Rattus norvegicus; assay: Antiinflammatory activity against male Sprague-Dawley rat pressure ulcer model assessed as appearance of orderly arranged cells at 0.625 to 2.5% administered as ointment by H and E staining based analysis; format: functional, organism-based
[27] = test system: Rattus norvegicus; assay: Antiinflammatory activity against male Sprague-Dawley rat pressure ulcer model assessed as appearance of orderly arranged cells at 0.625 to 2.5% administered as ointment by Masson staining based analysis; format: functional, organism-based
[28] = test system: Rattus norvegicus; assay: Antiinflammatory activity against male Sprague-Dawley rat pressure ulcer model assessed as increase in number of fibroblasts at 0.625 to 2.5% administered as ointment by Masson staining based analysis; format: functional, organism-based
[29] = test system: Rattus norvegicus; assay: Antiinflammatory activity against male Sprague-Dawley rat pressure ulcer model assessed as decrease in inflammatory cells in dermis at 0.625 to 2.5% administered as ointment by Masson staining based analysis; format: functional, organism-based
[30] = test system: Rattus norvegicus; assay: Antiinflammatory activity against male Sprague-Dawley rat pressure ulcer model assessed as appearance of thinner epidermal layer at 0.625 to 2.5% administered as ointment by Masson staining based analysis; format: functional, organism-based
[31] = species: Rattus norvegicus; assay: Antiinflammatory activity against male Sprague-Dawley rat pressure ulcer model assessed as increase in CREB phosphorylation expression by immunohistochemical staining based analysis; format: functional, organism-based
[32] = test system: RAW264.7; assay: Antiinflammatory activity against mouse RAW264.7 cells assessed as increase in cAMP expression at 5 to 20 uM by […] analysis; format: functional, cell-based; conditions: dose 5-20 µM
[33] = test system: RAW264.7; assay: Antiinflammatory activity against LPS induced mouse RAW264.7 cells assessed as increase in CREB phosphorylation expression at 5 to 20 uM by immunofluorescence analysis; format: functional, cell-based; conditions: dose 5-20 µM
[34] = Toxicity in male Sprague-Dawley rat assessed as pathological changes in kidney by H and E staining based analysis; format: tissue-based; conditions: in vivo
[35] = test system: Enterococcus faecalis; assay: Antibacterial activity against Enterococcus faecalis BNCC296862 assessed as reduction in bacterial colonies growth at 512 ug/ml measured after 24 hrs by agar plate method; format: functional, organism-based; conditions: dose 512.0 µg/ml
[36] = test system: Mus musculus; assay: Antiallodynic activity in female C57/BL mouse assessed as increase in response latency at 60 mg/kg, ip measured after 3 to 7 days by hot plate method; format: functional, organism-based; conditions: time 3-7 day
[37] = Acute toxicity in female Kunming mouse assessed as effect on weight at 500 to 4000 mg/kg measured after 14 days; format: organism-based; conditions: in vivo, 336 h, dose 500-4000 mg/kg, time 14 day
[38] = Acute toxicity in male Kunming mouse assessed as effect on pathological changes in heart at 500 to 4000 mg/kg measured after 14 days by H and E staining based analysis; format: organism-based; conditions: in vivo, 336 h, dose 500-4000 mg/kg, time 14 day
[39] = Acute toxicity in male Kunming mouse assessed as effect on pathological changes in spleen at 500 to 4000 mg/kg measured after 14 days by H and E staining based analysis; format: organism-based; conditions: in vivo, 336 h, dose 500-4000 mg/kg, time 14 day
[40] = Acute toxicity in female Kunming mouse assessed as effect on pathological changes in heart at 500 to 4000 mg/kg measured after 14 days by H and E staining based analysis; format: organism-based; conditions: in vivo, 336 h, dose 500-4000 mg/kg, time 14 day
[41] = Acute toxicity in female Kunming mouse assessed as effect on pathological changes in liver at 500 to 4000 mg/kg measured after 14 days by H and E staining based analysis; format: organism-based; conditions: in vivo, 336 h, dose 500-4000 mg/kg, time 14 day
[42] = Acute toxicity in female Kunming mouse assessed as effect on pathological changes in spleen at 500 to 4000 mg/kg measured after 14 days by H and E staining based analysis; format: organism-based; conditions: in vivo, 336 h, dose 500-4000 mg/kg, time 14 day

Chain of cGMP-inhibited 3',5'-cyclic phosphodiesterase 3A (Q14432 whole entry): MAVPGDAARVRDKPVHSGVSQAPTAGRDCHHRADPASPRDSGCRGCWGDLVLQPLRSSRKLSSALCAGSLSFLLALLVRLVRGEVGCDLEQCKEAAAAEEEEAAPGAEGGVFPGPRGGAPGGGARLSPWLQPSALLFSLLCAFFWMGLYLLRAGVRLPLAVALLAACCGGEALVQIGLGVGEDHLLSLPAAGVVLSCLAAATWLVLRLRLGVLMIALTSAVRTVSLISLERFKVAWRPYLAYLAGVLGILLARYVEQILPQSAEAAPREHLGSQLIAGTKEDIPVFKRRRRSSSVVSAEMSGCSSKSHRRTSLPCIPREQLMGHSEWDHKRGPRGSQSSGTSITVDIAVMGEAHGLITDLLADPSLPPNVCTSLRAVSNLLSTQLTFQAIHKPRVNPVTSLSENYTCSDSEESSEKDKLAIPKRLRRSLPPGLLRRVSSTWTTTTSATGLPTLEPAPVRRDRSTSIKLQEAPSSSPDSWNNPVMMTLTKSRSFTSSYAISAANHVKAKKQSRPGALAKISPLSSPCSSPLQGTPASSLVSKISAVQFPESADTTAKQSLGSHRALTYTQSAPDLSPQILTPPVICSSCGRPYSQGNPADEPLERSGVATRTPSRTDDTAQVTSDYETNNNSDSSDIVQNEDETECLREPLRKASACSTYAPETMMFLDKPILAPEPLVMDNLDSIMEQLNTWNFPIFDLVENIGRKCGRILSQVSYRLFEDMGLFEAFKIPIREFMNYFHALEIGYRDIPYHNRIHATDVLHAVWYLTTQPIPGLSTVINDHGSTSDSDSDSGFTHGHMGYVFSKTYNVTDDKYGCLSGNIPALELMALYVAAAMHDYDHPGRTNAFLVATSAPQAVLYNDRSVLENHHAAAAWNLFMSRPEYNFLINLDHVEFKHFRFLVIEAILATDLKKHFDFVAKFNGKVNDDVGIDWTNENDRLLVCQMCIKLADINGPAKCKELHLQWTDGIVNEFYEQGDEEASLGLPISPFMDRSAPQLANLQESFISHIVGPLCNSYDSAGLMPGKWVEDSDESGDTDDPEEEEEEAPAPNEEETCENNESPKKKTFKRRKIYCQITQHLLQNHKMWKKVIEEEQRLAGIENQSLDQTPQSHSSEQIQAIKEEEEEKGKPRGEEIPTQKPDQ
Chain of Cone cGMP-specific 3',5'-cyclic phosphodiesterase subunit alpha' (P51160 whole entry): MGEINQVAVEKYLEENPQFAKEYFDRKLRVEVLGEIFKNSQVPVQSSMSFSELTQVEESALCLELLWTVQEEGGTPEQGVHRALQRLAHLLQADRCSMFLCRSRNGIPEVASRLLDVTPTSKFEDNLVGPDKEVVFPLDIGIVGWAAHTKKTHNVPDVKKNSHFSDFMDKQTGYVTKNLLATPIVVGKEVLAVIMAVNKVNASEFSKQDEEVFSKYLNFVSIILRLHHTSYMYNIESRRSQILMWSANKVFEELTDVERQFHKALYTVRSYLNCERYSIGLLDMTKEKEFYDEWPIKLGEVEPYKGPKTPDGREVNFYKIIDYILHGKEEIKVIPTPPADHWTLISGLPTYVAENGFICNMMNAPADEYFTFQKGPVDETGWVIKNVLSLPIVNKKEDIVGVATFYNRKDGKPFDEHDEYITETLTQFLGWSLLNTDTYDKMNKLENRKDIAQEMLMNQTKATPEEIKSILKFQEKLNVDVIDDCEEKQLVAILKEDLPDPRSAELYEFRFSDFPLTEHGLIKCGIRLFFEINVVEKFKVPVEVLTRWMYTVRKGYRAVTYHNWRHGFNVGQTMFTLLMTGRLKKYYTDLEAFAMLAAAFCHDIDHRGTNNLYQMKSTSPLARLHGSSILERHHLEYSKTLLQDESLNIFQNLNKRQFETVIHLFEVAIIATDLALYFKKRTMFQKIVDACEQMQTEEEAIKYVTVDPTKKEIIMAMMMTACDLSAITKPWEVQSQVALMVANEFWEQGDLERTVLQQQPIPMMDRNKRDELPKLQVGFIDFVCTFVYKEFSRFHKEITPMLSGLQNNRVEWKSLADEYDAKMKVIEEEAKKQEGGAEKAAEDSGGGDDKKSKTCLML
Chain of High affinity 3',5'-cyclic-AMP phosphodiesterase 7A (Q13946 whole entry): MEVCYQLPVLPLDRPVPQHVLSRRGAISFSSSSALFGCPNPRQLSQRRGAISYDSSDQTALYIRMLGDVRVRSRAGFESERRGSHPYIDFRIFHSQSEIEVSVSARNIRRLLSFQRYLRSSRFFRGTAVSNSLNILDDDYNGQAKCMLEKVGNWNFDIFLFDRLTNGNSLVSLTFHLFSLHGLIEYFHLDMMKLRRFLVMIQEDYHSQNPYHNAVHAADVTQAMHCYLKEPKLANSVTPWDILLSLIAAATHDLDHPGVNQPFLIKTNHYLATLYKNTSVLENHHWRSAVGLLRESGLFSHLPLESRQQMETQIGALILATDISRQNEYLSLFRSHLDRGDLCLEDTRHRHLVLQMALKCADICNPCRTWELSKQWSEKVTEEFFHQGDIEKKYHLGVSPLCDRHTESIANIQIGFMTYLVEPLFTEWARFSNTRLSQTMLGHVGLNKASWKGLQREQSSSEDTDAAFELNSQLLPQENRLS
Chain of Cytochrome P450 2C19 (P33261 whole entry): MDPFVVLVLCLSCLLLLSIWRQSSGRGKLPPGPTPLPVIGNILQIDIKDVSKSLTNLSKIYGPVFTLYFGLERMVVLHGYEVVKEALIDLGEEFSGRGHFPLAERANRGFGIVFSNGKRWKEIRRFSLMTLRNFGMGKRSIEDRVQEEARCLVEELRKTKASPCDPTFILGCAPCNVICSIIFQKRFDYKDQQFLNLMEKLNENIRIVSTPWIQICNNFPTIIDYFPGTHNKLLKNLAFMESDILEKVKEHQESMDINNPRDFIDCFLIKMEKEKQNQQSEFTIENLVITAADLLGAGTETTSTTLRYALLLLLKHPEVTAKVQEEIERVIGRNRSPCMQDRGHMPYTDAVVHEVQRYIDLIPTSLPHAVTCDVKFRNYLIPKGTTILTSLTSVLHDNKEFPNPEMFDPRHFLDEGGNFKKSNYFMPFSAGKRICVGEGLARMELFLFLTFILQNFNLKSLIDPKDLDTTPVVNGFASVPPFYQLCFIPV
Chain of Cytochrome P450 2D6 (P10635 whole entry): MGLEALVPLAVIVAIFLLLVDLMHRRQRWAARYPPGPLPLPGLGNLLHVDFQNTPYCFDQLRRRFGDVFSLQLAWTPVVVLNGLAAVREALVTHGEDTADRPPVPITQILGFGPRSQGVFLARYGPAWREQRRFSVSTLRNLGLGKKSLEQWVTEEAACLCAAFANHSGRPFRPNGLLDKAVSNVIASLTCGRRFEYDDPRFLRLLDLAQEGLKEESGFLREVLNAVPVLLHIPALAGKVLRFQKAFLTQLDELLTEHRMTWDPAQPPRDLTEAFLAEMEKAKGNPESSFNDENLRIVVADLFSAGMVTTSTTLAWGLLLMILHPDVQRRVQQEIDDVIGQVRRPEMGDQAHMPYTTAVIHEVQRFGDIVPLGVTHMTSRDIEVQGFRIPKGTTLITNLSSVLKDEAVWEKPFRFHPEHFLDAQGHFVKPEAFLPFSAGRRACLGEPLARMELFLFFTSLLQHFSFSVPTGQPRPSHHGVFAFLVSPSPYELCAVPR
Chain of cAMP and cAMP-inhibited cGMP 3',5'-cyclic phosphodiesterase 10A (Q9Y233 whole entry): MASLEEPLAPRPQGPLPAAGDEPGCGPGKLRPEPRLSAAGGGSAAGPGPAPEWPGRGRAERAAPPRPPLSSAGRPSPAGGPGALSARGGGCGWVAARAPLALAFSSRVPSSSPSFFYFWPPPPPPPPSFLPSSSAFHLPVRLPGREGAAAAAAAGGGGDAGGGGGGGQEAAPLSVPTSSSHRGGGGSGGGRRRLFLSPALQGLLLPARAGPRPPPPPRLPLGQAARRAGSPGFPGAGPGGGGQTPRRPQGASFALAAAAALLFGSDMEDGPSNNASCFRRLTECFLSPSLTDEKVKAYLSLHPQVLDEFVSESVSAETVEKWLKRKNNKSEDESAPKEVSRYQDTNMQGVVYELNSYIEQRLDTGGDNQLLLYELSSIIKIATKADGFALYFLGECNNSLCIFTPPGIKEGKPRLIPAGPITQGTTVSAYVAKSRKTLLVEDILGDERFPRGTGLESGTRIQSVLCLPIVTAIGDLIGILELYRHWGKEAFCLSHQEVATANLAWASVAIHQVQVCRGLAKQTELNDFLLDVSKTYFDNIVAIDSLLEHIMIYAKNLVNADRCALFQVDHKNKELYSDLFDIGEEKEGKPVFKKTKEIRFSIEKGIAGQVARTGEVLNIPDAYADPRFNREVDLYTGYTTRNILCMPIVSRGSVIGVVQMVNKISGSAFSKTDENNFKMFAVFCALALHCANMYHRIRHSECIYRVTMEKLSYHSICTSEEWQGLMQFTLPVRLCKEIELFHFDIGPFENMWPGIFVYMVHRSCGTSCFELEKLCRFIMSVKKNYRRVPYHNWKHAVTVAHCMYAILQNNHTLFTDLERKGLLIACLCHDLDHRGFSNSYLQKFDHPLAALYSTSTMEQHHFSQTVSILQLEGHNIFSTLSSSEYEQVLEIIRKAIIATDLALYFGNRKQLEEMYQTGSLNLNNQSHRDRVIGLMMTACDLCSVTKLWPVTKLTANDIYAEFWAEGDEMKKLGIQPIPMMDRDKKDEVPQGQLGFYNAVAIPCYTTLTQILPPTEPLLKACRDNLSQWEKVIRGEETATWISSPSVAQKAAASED
Chain of Cytochrome P450 3A4 (P08684 whole entry): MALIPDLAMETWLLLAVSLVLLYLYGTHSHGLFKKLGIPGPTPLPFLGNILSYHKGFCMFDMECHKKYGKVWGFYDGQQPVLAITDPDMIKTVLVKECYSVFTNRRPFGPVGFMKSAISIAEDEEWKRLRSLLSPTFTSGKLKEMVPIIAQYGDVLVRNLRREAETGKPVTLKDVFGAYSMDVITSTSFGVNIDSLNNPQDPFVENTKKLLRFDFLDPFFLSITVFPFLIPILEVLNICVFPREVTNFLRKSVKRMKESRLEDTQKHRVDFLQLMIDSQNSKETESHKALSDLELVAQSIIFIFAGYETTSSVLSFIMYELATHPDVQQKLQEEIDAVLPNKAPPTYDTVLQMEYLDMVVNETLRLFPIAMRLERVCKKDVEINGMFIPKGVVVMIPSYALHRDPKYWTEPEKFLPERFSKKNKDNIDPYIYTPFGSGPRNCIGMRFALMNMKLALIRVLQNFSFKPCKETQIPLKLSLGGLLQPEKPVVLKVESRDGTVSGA

SMILES: Cn1c(=O)c2c(ncn2CCC(=O)NNC(=O)c2cc3nccc(-c4ccc(OC(F)F)c(OCC5CC5)c4)n3n2)n(C)c1=O
- Activity [1]: inactive
- CC50 [2]: > 90 µM
- IC50 [3]: 13.3 µM
- IC50 [4]: 2.32 µM
- AUC(0-t) [5]: 235 ng·h/mL
- AUC(0-inf) [6]: 236 ng·h/mL
- clearance [7]: 358 mL/min/kg
- AUC(0-t) [8]: 25.6 ng·h/mL
- AUC(0-inf) [9]: 26.8 ng·h/mL
- half-life [10]: 1.4 h
- bioavailability [11]: 5.5%
- IC50 [12]: > 50 µM
- IC50 [13]: > 50 µM
- IC50 [14]: > 50 µM
- IC50 [15]: > 50 µM
- IC50 [16]: > 50 µM
- IC50 [17]: > 50 µM
- IC50 [18]: > 50 µM
- IC50 [19]: 15.1 µM
- IC50 [20]: 1.72 µM
- IC50 [21]: 1.12 µM
- Activity [22]: 78%
- Activity [23]: 93%
- Activity [24]: Active
- Activity [25]: Active
- Activity [26]: Active
- Activity [27]: Active
- Activity [28]: Active
- Activity [29]: Active
- Activity [30]: Active
- Activity [31]: Active
- Activity [32]: Active
- Activity [33]: Active
- Activity [34]: Non-toxic
- Activity [35]: Active
- Activity [36]: Active
- Activity [37]: Non-toxic
- Activity [38]: Non-toxic
- Activity [39]: Non-toxic
- Activity [40]: Non-toxic
- Activity [41]: Non-toxic
- Activity [42]: Non-toxic
